Drawing on PMC7182600 (Influenza and Other Respiratory Viruses, 2020), this text covers IC50 for 1 substance.

In general, IC50 refers to the concentration needed to halve the response being measured.

The target of the experiment is NA of rPhuket3073/Yamagata (wild‐type) (Influenza B virus, UniProt A0A1S5RAG6). It is filed as biochemical. The conditions noted are these: read-out: IC50 values of NA inhibitors.
Chain of NA of rPhuket3073/Yamagata (wild‐type) (A0A1S5RAG6 entry or part of it, added parts left off): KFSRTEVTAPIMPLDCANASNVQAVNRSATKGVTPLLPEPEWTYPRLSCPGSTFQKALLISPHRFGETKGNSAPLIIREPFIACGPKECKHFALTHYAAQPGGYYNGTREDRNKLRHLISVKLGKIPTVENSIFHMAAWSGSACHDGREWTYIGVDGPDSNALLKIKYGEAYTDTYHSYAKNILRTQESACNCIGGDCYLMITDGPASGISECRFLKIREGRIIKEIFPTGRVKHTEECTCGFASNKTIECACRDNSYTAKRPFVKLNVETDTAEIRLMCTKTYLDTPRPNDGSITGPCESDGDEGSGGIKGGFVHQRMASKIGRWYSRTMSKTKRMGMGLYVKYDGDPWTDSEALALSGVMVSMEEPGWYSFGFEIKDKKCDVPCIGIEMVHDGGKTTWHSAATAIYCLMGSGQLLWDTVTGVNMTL

Peramivir: the IC50 was found to be 0.5 nM.
